Earlier results as cited in patent US20120095087A1, “ENHANCED PRODUCTS BY SUSTAINABLE PROCESSES FOR MEDICINAL USE” (priority 2010, published 2012).

Key:
gene ID1 = settings: in vitro
[1] = animal tests
CB2 receptors = CB2 receptors (Homo sapiens, UniProt P34972)
5-HT1A receptor = target: T1, 5-HT1A receptor (Homo sapiens, UniProt P08908)
T1 sequence (P08908 1-422): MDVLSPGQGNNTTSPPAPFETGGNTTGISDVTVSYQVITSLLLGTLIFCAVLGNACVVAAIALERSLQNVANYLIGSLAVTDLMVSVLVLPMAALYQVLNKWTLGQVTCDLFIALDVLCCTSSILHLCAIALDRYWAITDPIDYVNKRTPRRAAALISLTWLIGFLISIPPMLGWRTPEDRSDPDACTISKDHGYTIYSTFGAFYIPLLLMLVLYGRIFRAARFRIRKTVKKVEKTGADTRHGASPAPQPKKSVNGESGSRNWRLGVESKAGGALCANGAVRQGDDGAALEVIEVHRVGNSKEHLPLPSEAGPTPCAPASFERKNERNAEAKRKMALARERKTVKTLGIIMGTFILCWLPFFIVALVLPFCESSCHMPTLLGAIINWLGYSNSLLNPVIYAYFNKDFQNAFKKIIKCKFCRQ

GPR55 = GPR55 (Homo sapiens, UniProt Q9Y2T6); settings: putative new cannabinoid receptor
cancer cell growth = settings: low potency in non-cancer cells

Sequence of GPR55 (Q9Y2T6 whole entry, species assumed): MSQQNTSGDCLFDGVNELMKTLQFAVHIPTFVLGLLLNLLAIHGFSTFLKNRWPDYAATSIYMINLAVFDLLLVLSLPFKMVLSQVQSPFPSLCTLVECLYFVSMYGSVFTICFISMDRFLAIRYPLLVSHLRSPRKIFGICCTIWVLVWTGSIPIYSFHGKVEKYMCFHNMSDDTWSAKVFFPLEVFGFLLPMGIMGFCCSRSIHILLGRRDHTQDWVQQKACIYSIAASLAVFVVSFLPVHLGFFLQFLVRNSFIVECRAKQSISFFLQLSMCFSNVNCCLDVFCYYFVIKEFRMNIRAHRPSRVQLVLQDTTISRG
Sequence of CB2 receptors (P34972 whole entry): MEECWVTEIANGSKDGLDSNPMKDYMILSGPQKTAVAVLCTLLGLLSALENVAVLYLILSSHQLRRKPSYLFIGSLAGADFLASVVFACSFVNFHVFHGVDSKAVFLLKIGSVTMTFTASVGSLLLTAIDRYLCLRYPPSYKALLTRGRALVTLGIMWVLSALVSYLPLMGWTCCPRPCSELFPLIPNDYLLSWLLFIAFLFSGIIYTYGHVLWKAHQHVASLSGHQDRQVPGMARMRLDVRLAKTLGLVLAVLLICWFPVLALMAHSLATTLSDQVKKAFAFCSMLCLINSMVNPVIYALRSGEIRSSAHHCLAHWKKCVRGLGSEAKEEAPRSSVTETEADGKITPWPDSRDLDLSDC

CCCCCCC(C)(C)c1cc(O)c2c(c1)OC(C)(C)[C@@H]1CC=C(CO)C[C@@H]21 [HU-210]
potency relative to THC: about 100 times

C=C(C)[C@@H]1CCC(C)=C[C@H]1c1c(O)cc(CCCCC)cc1O [Cannabidiol, cannabidiol]
activity of the gene ID1 (gene ID1): downregulates | sedative effects [1]: sedative effects | affinity for CB2 receptors (CB2 receptors): no affinity | action at 5-HT1A receptor (5-HT1A receptor): agonist | action at GPR55 (GPR55): antagonist | cancer cell growth (cancer cell growth): inhibit cancer cell growth
